According to ChEMBL document CHEMBL1201862, “PubChem BioAssay data set” (2004):
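Method: 48-hour compound exposure of cells in 96-well plates, five concentrations, linear interpolation of endpoints. GI50 marks 50% less growth.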 Activity calls are given as the source filed them. Rule as the data show it: active = GI50 up to about 1.1 µM and inactive = higher.

Tests used:
Assay in all cases: NCI tumour cell line growth inhibition, 48 h
NCI-H226 = test system: NCI-H226
MDA-N = test system: MDA-N
SNB-19 = test system: SNB-19
MDA-MB-435 = test system: MDA-MB-435
NCI-H460 = test system: NCI-H460
ACHN = test system: ACHN
SN12C = test system: SN12C
SF-295 = test system: SF-295
SK-MEL-2 = test system: SK-MEL-2
SK-MEL-28 = test system: SK-MEL-28
OVCAR-8 = test system: OVCAR-8
COLO 205 = test system: COLO 205
HOP-92 = test system: HOP-92
UACC-257 = test system: UACC-257
RXF 393 = test system: RXF 393
SW-620 = test system: SW-620
DU-145 = test system: DU-145
SF-268 = test system: SF-268
K562 = test system: K562
HL-60 = test system: HL-60
PC-3 = test system: PC-3
Hs-578T = test system: Hs-578T
Malme-3M = test system: Malme-3M
MCF7 = test system: MCF7
HOP-62 = test system: HOP-62
UO-31 = test system: UO-31
U-251 = test system: U-251
MOLT-4 = test system: MOLT-4
KM12 = test system: KM12
T47D = test system: T47D
NCI/ADR-RES = test system: NCI/ADR-RES
HCC 2998 = test system: HCC 2998
CCRF-CEM = test system: CCRF-CEM
SK-MEL-5 = test system: SK-MEL-5
RPMI-8226 = test system: RPMI-8226
TK-10 = test system: TK-10
OVCAR-5 = test system: OVCAR-5
786-0 = test system: 786-0
M14 = test system: M14
EKVX = test system: EKVX
SNB-75 = test system: SNB-75
CAKI-1 = test system: CAKI-1
SF-539 = test system: SF-539
BT-549 = test system: BT-549
SK-OV-3 = test system: SK-OV-3
A498 = test system: A498
NCI-H23 = test system: NCI-H23
NCI-H522 = test system: NCI-H522
HT-29 = test system: HT-29
IGROV-1 = test system: IGROV-1
OVCAR-4 = test system: OVCAR-4
A549 = test system: A549
MDA-MB-231 = test system: MDA-MB-231
HCT-116 = test system: HCT-116
SR = test system: SR
LOX IMVI = test system: LOX IMVI
OVCAR-3 = test system: OVCAR-3
HCT-15 = test system: HCT-15
UACC-62 = test system: UACC-62

SMILES: COC(=O)c1ccc2c(O)c(O)ccc2c1
- GI50 (NCI-H226): 23.1 µM (inactive)
- GI50 (MDA-N): 1.74 µM (inactive)
- GI50 (SNB-19): 14.4 µM (inactive)
- GI50 (MDA-MB-435): 1.87 µM (inactive)
- GI50 (NCI-H460): 19.9 µM (inactive)
- GI50 (ACHN): 17.1 µM (inactive)
- GI50 (SN12C): 9.14 µM (inactive)
- GI50 (SF-295): 6.98 µM (inactive)
- GI50 (SK-MEL-2): 1.18 µM (inactive)
- GI50 (SK-MEL-28): 16.3 µM (inactive)
- GI50 (OVCAR-8): 16.1 µM (inactive)
- GI50 (COLO 205): 13.6 µM (inactive)
- GI50 (HOP-92): 18.4 µM (inactive)
- GI50 (UACC-257): 14.9 µM (inactive)
- GI50 (RXF 393): 17.6 µM (inactive)
- GI50 (SW-620): 12.1 µM (inactive)
- GI50 (DU-145): 16.4 µM (inactive)
- GI50 (SF-268): 19.4 µM (inactive)
- GI50 (K562): 2.36 µM (inactive)
- GI50 (HL-60): 2.02 µM (inactive)
- GI50 (PC-3): 5.6 µM (inactive)
- GI50 (Hs-578T): 27 µM (inactive)
- GI50 (Malme-3M): 11.8 µM (inactive)
- GI50 (MCF7): 18.5 µM (inactive)
- GI50 (HOP-62): 18.9 µM (inactive)
- GI50 (UO-31): 20.7 µM (inactive)
- GI50 (U-251): 14.4 µM (inactive)
- GI50 (MOLT-4): 4.81 µM (inactive)
- GI50 (KM12): 17.1 µM (inactive)
- GI50 (T47D): 19.5 µM (inactive)
- GI50 (NCI/ADR-RES): 20.1 µM (inactive)
- GI50 (HCC 2998): 15.1 µM (inactive)
- GI50 (CCRF-CEM): 2.69 µM (inactive)
- GI50 (SK-MEL-5): 4.45 µM (inactive)
- GI50 (RPMI-8226): 14.7 µM (inactive)
- GI50 (TK-10): 21.5 µM (inactive)
- GI50 (OVCAR-5): 19.2 µM (inactive)
- GI50 (786-0): 15.6 µM (inactive)
- GI50 (M14): 16.4 µM (inactive)
- GI50 (EKVX): 22.8 µM (inactive)
- GI50 (SNB-75): 12.8 µM (inactive)
- GI50 (CAKI-1): 25.1 µM (inactive)
- GI50 (SF-539): 19.1 µM (inactive)
- GI50 (BT-549): 12.5 µM (inactive)
- GI50 (SK-OV-3): 18.1 µM (inactive)
- GI50 (A498): 21.3 µM (inactive)
- GI50 (NCI-H23): 5.28 µM (inactive)
- GI50 (NCI-H522): 15.2 µM (inactive)
- GI50 (HT-29): 17.1 µM (inactive)
- GI50 (IGROV-1): 17.2 µM (inactive)
- GI50 (OVCAR-4): 14.6 µM (inactive)
- GI50 (A549): 22.2 µM (inactive)
- GI50 (MDA-MB-231): 6.56 µM (inactive)
- GI50 (HCT-116): 16.7 µM (inactive)
- GI50 (SR): 2.6 µM (inactive)
- GI50 (LOX IMVI): 2.87 µM (inactive)
- GI50 (OVCAR-3): 7 µM (inactive)
- GI50 (HCT-15): 13.6 µM
- GI50 (UACC-62): 15.9 µM (inactive)
